Test results: ChEMBL document CHEMBL4800729 (2021)

Assays:
[1] = target: Homeodomain-interacting protein kinase 4 (Homo sapiens) (UniProt Q8NE63); test: HIPK4(h) Millipore kinase panel; settings: Compound concentration 1.0 uM
[2] = target: Receptor-interacting serine/threonine-protein kinase 1 (Homo sapiens) (UniProt Q13546); test: RIPK1(h) Millipore kinase panel; settings: Compound concentration 1.0 uM
[3] = target: Serine/threonine-protein kinase ULK3 (Homo sapiens) (UniProt Q6PHR2); test: ULK3(h) Millipore kinase panel; settings: Compound concentration 1.0 uM
[4] = target: Cyclin-dependent kinase 5/CDK5 activator 1 (Homo sapiens) (UniProt Q00535+Q15078); test: CDK5/p25(h) Millipore kinase panel; assay type: protein-complex assay; settings: Compound concentration 1.0 uM
[5] = target: GABA-A receptor; anion channel (Rattus norvegicus) (UniProt O09028+P15431+P18506+P18508+P19969+P20236+P23574+P23576+P28471+P28473+P30191+P62813+P63079+P63138+Q91ZM7+Q9ES14); settings: Compound concentration 10.0 uM
[6] = target: Type-2 angiotensin II receptor (Homo sapiens) (UniProt P50052); settings: Compound concentration 10.0 uM
[7] = target: Kappa-type opioid receptor (Homo sapiens) (UniProt P41145); settings: Compound concentration 10.0 uM
Kappa-type opioid receptor (Homo sapiens), sequence (P41145 whole entry): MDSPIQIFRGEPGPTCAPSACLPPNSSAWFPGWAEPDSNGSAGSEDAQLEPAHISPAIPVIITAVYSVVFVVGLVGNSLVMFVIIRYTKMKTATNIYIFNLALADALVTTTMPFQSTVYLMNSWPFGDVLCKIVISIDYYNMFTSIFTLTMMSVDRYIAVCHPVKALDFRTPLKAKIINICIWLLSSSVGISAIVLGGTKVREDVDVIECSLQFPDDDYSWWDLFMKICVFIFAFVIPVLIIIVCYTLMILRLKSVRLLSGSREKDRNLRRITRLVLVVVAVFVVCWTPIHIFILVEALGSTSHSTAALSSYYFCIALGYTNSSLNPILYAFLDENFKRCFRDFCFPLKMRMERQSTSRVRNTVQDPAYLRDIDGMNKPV

[8] = target: Dual specificity protein kinase CLK3 (Homo sapiens) (UniProt P49761); test: CLK3(h) Millipore kinase panel; settings: Compound concentration 1.0 uM
[9] = target: Calcium/calmodulin-dependent protein kinase type 1B (Homo sapiens) (UniProt Q6P2M8); test: CaMKIbeta(h) Millipore kinase panel; settings: Compound concentration 1.0 uM
Calcium/calmodulin-dependent protein kinase type 1B (Homo sapiens), sequence (Q6P2M8 whole entry): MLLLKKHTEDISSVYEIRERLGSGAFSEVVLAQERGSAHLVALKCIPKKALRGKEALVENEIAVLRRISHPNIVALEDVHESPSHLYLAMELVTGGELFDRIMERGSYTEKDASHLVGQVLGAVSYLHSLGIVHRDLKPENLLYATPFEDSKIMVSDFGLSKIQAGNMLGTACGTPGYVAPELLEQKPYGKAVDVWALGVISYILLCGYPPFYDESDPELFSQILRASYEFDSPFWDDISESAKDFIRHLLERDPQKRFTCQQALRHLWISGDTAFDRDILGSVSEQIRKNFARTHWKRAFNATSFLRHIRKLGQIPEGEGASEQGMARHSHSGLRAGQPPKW

[10] = target: Growth hormone secretagogue receptor type 1 (Homo sapiens) (UniProt Q92847); settings: Compound concentration 10.0 uM
Growth hormone secretagogue receptor type 1 (Homo sapiens), sequence (Q92847 whole entry): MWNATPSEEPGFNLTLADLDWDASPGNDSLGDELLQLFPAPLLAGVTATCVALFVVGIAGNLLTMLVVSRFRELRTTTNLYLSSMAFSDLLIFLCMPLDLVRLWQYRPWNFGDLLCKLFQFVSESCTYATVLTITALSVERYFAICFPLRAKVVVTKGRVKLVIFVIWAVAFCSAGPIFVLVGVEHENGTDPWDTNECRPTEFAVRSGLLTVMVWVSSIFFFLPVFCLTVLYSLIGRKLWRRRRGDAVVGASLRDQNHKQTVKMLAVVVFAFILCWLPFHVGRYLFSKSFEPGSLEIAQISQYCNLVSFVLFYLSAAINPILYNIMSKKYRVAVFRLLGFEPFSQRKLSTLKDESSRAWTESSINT

[11] = target: 5-hydroxytryptamine receptor 1B (Homo sapiens, UniProt P28222); settings: Compound concentration 10.0 uM
5-hydroxytryptamine receptor 1B, sequence (P28222 whole entry): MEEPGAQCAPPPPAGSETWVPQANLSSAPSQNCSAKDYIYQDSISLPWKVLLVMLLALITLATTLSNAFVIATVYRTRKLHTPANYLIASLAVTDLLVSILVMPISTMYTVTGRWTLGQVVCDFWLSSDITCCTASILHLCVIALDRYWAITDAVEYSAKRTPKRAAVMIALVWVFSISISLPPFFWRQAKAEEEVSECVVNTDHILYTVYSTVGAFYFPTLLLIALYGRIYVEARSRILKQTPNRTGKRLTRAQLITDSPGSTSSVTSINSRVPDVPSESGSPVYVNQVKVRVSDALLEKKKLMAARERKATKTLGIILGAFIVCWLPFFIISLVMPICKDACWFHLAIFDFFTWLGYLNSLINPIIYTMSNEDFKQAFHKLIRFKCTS

[12] = target: Tyrosine-protein kinase JAK2 (Homo sapiens) (UniProt O60674); test: JAK2(h) Millipore kinase panel; settings: Compound concentration 1.0 uM
[13] = target: Kappa-type opioid receptor (Homo sapiens) (UniProt P41145); settings: Compound concentration 10.0 uM; remark: listed apart in the source
[14] = target: Casein kinase II subunit alpha' (Homo sapiens) (UniProt P19784); test: CK2alpha2(h) Millipore kinase panel; settings: Compound concentration 1.0 uM
Casein kinase II subunit alpha' (Homo sapiens), sequence (P19784 whole entry, looked up): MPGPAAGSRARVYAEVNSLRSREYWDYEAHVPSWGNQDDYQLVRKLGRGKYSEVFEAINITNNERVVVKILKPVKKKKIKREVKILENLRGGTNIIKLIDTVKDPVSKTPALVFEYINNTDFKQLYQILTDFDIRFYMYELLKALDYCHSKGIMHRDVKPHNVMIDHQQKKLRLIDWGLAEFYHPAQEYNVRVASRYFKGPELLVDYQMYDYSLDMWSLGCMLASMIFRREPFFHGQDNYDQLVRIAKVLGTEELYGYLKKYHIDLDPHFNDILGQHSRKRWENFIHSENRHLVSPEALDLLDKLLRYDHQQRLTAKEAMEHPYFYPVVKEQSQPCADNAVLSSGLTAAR

[15] = target: Serine/threonine-protein kinase Nek2 (Homo sapiens) (UniProt P51955); test: NEK2(h) Millipore kinase panel; settings: Compound concentration 1.0 uM
[16] = target: Serine/threonine-protein kinase WNK3 (Homo sapiens) (UniProt Q9BYP7); test: WNK3(h) Millipore kinase panel; settings: Compound concentration 1.0 uM
Serine/threonine-protein kinase WNK3 (Homo sapiens), sequence (Q9BYP7 whole entry): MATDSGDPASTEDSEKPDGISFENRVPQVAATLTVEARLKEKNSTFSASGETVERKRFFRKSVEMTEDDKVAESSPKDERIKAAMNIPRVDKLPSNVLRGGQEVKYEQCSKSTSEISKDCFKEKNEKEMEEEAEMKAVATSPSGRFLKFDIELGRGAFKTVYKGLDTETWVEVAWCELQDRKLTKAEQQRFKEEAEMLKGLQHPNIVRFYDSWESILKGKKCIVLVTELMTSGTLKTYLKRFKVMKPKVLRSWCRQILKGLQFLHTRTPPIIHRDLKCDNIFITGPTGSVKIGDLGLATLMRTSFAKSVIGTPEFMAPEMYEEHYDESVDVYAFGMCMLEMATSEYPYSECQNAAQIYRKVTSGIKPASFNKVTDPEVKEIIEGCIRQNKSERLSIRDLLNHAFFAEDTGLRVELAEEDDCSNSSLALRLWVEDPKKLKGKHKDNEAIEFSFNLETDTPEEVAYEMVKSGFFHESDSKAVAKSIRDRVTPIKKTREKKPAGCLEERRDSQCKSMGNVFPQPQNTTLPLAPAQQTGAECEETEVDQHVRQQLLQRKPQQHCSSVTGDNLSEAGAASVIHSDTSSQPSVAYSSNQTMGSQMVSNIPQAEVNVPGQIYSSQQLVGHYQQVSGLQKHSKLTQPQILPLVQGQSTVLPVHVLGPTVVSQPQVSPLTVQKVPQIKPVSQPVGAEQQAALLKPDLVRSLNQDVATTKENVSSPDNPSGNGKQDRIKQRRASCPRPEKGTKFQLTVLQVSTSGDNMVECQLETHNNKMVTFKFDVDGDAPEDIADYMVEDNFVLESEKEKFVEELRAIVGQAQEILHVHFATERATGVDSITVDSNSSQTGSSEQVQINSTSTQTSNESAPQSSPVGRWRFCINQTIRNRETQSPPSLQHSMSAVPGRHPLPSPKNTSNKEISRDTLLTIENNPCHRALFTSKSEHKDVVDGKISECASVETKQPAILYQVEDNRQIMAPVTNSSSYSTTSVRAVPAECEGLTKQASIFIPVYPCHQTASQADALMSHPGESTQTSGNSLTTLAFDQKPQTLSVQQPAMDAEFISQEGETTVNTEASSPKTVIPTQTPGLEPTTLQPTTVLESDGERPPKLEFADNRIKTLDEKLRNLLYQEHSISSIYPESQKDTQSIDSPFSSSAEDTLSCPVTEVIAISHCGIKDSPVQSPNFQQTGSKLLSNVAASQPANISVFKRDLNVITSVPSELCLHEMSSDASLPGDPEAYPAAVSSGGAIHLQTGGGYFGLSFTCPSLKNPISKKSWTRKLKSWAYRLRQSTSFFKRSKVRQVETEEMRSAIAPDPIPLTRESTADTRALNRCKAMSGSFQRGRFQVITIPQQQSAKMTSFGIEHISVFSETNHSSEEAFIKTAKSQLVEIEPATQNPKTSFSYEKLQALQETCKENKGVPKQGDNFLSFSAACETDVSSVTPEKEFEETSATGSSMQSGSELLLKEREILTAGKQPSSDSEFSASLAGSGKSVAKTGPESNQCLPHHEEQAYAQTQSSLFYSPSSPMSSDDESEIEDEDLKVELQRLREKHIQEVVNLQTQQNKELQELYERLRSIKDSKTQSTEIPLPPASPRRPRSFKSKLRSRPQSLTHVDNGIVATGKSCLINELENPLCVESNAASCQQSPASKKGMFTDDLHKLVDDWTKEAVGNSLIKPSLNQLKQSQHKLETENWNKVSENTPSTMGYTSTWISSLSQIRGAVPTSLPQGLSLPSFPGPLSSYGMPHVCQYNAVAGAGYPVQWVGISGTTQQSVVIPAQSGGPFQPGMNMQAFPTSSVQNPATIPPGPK

[17] = target: Adenosine receptor A1 (Homo sapiens) (UniProt P30542); settings: Compound concentration 10.0 uM
Adenosine receptor A1 (Homo sapiens), sequence (P30542 whole entry): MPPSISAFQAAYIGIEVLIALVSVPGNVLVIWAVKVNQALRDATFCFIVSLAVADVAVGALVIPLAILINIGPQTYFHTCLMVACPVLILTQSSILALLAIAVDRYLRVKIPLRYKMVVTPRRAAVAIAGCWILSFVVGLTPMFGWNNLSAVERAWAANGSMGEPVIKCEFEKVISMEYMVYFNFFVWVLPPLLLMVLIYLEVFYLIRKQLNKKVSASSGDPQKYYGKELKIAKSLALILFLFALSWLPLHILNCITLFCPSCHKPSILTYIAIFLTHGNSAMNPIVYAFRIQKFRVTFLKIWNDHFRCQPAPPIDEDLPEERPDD

[18] = target: Serine/threonine-protein kinase Nek6 (Homo sapiens) (UniProt Q9HC98); test: NEK6(h) Millipore kinase panel; settings: Compound concentration 1.0 uM
[19] = target: Focal adhesion kinase 1 (Homo sapiens) (UniProt Q05397); test: FAK(h Millipore kinase panel; settings: Compound concentration 1.0 uM
[20] = target: BMP-2-inducible protein kinase (Homo sapiens) (UniProt Q9NSY1); test: BIKe(h) Millipore kinase panel; settings: Compound concentration 1.0 uM
[21] = target: Testis-specific serine/threonine-protein kinase 4 (Homo sapiens) (UniProt Q6SA08); test: TSSK4(h) Millipore kinase panel; settings: Compound concentration 1.0 uM
[22] = target: Mitogen-activated protein kinase 14 (Homo sapiens) (UniProt Q16539); test: SAPK2a(h) Millipore kinase panel; settings: Compound concentration 1.0 uM
[23] = target: Platelet-derived growth factor receptor alpha (Homo sapiens) (UniProt P16234); test: PDGFRalpha Millipore kinase panel; settings: Compound concentration 1.0 uM
[24] = target: Serine/threonine-protein kinase 38-like (Homo sapiens) (UniProt Q9Y2H1); test: NDR2(h) Millipore kinase panel; settings: Compound concentration 1.0 uM
[25] = target: Serine/threonine-protein kinase tousled-like 2 (Homo sapiens) (UniProt Q86UE8); test: TLK2(h) Millipore kinase panel; settings: Compound concentration 1.0 uM
[26] = target: Serine/threonine-protein kinase pim-2 (Homo sapiens) (UniProt Q9P1W9); test: Pim-2(h) Millipore kinase panel; settings: Compound concentration 1.0 uM
[27] = target: Mitogen-activated protein kinase kinase kinase 21 (Homo sapiens) (UniProt Q5TCX8); test: MLK4(h) Millipore kinase panel; settings: Compound concentration 1.0 uM
[28] = target: Proto-oncogene tyrosine-protein kinase receptor Ret (Homo sapiens) (UniProt P07949); test: Ret(h) Millipore kinase panel; settings: Compound concentration 1.0 uM
[29] = target: Serine/threonine-protein kinase ULK1 (Homo sapiens) (UniProt O75385); test: ULK1(h) Millipore kinase panel; settings: Compound concentration 1.0 uM
[30] = target: 5-hydroxytryptamine receptor 2B (Homo sapiens, UniProt P41595); settings: Compound concentration 10.0 uM
[31] = target: T1, Muscarinic acetylcholine receptor M1 (Homo sapiens) (UniProt P11229); settings: Compound concentration 10.0 uM
T1 sequence (whole entry): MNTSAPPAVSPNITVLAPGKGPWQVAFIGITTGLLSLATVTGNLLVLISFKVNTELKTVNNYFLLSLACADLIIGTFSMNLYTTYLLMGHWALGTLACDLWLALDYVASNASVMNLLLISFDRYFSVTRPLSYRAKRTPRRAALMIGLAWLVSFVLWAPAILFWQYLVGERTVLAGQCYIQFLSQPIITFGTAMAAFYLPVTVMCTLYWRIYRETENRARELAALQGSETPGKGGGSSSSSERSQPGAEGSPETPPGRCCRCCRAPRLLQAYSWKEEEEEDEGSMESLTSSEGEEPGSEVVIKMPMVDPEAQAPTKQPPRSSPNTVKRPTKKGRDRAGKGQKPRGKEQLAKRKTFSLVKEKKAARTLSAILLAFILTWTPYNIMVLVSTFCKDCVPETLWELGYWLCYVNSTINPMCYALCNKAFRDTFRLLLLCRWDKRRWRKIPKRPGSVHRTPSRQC

[32] = target: Equilibrative nucleoside transporter 1/2/3/4 (Homo sapiens) (UniProt Q99808+Q7RTT9+Q14542+Q9BZD2); settings: Compound concentration 10.0 uM
[33] = target: Prostaglandin G/H synthase 2 (Homo sapiens) (UniProt P35354); test: Cyclooxygenase COX-2 Eurofins-Panlabs enzyme assay; design: substrate with concentration; settings: Compound concentration 10.0 uM
[34] = target: Tyrosine-protein kinase ZAP-70 (Homo sapiens) (UniProt P43403); test: ZAP_70(h) Millipore kinase panel; settings: Compound concentration 1.0 uM
Tyrosine-protein kinase ZAP-70 (Homo sapiens), sequence (P43403 whole entry): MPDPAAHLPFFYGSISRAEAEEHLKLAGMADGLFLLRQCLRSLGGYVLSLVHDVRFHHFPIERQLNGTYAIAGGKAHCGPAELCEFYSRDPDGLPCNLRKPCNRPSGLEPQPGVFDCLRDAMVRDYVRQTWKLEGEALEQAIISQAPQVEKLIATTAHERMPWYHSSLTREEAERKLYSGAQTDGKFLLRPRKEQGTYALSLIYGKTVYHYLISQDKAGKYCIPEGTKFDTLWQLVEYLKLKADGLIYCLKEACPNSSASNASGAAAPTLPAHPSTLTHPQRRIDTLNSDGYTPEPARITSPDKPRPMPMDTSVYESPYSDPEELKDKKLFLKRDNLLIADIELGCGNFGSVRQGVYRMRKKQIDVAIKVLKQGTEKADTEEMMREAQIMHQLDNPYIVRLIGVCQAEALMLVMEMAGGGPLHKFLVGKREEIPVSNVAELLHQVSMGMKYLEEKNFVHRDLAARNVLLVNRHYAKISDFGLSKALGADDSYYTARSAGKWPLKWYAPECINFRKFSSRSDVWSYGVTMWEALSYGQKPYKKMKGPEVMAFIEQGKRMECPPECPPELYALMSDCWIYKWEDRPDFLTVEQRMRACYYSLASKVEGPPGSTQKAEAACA

[35] = target: Serine/threonine-protein kinase PLK4 (Homo sapiens) (UniProt O00444); test: Plk4(h) Millipore kinase panel; settings: Compound concentration 1.0 uM
[36] = target: Mitogen-activated protein kinase kinase kinase 10 (Homo sapiens) (UniProt Q02779); test: MLK2(h) Millipore kinase panel; settings: Compound concentration 1.0 uM
[37] = target: Cyclin-dependent kinase-like 1 (Homo sapiens) (UniProt Q00532); test: CDKL1(h) Millipore kinase panel; settings: Compound concentration 1.0 uM
Cyclin-dependent kinase-like 1 (Homo sapiens), sequence (Q00532 whole entry): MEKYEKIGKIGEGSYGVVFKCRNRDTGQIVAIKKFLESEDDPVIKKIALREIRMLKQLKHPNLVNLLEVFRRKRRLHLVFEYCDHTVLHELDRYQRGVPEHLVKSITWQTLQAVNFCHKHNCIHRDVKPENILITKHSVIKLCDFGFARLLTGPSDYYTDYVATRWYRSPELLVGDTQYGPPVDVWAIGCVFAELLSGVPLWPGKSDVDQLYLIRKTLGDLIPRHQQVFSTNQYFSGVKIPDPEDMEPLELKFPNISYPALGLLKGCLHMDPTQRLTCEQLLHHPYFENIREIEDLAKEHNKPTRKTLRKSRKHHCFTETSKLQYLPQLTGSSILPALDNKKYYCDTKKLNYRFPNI

[38] = species: Homo sapiens; test: CDK9/cyclinT1(h) Millipore kinase panel; settings: Compound concentration 1.0 uM
[39] = target: Glutamate receptor ionotropic, kainate (Rattus norvegicus) (UniProt P22756+Q01812+P42260+P42264+Q63273); settings: Compound concentration 10.0 uM
[40] = target: B2 bradykinin receptor (Homo sapiens) (UniProt P30411); settings: Compound concentration 10.0 uM

CC[C@@H](Nc1c(C#N)c(-c2ccc(-c3cccc(C)c3F)cc2)nc2cnccc12)C(=O)O [BAY-091]
inhibition [1]: 15.7% | inhibition [2]: 21.2% | inhibition [3]: 0.33% | inhibition [4]: 6.65% | inhibition [5]: 12% | inhibition [6]: 11% | inhibition [7]: 0.48% | inhibition [8]: 2.84% | inhibition [9]: -7.99% | inhibition [10]: 6% | inhibition [11]: 11.3% | inhibition [12]: -5.62% | inhibition [13]: -2% | inhibition [14]: -4.36% | inhibition [15]: 15.9% | inhibition [16]: -1.89% | inhibition [17]: 13% | inhibition [18]: 9.31% | inhibition [19]: 13.3% | inhibition [20]: 5.17% | inhibition [21]: 24% | inhibition [22]: 2.76% | inhibition [23]: 9.33% | inhibition [24]: 5.88% | inhibition [25]: 8.27% | inhibition [26]: 6.42% | inhibition [27]: 9.6% | inhibition [28]: -3.56% | inhibition [29]: 14.2% | inhibition [30]: 61% | inhibition [31]: 13% | inhibition [32]: 42% | inhibition [33]: 29% | inhibition [34]: 2.99% | inhibition [35]: -8.83% | inhibition [36]: 18% | inhibition [37]: 4.02% | inhibition [38]: 11.8% | inhibition [39]: -2% | inhibition [40]: 1%
